Test results as given in publication PMC5515432, “A human tissue-based functional assay platform to evaluate the immune function impact of small molecule inhibitors that target the immune system” (PLoS ONE, 2017).
Several values for one entry are separate records, joined by “and”; a condition that tells them apart may be missing. Identical values can stand only once. Entries after “also recorded” stand apart in the source; their conditions may differ. Like-named read-outs stand apart in the source and are kept apart here. Values belong to the compound of their own block, whether it stands above or below them.

Key:
[1] = tested on: TLR7; assay: TLR7 response: TLR7 agonist induced IL-6 production in PBMCs; conditions: for TLR7 Max inhibition: sheet 'TLR7', % maximal inhibition = 'top' of curve fit
Protocol: (§3) To evaluate TLR3 responses, frozen PBMCs were thawed in culture medium. A total of 2x10^5 PBMCs were seeded per well in a 96-well tissue culture plate for the assay. One hour following incubation with compounds at 37°C, 5% CO2, the PBMCs were treated with a PBMC donor-specific EC80 concentration of the high molecular weight Poly I:C (TLR3 ligand, Invivogen, San Diego, CA) or appropriate controls, and were allowed to incubate at 37°C, 5% CO2 for 24 hours. Twenty four hours following incubation, 120μl of the cell culture supernatant was removed from the cell culture plates and frozen at -80°C until further analysis. To evaluate TLR7 and TLR9 responses, PBMCs were thawed in culture medium, reconstituted to a concentration of 3x10^6 cells/ml, dispensed into ultra-low attachment flasks and incubated at 37°C, 5% CO2 for 24h with continuous rocking. The PBMCs were harvested from the flask, seeded at a density of 2x10^5 PBMCs/well in compound-dispensed assay plates and allowed to incubate at 37°C, 5% CO2 for 24 hours. One hour following incubation with compounds at 37°C, 5% CO2, the PBMCs were treated with a PBMC donor-specific EC80 concentration of high molecular weight CL264 (TL7 ligand, Invivogen, San Diego, CA) or ODN 2395 (TLR9 ligand, Invivogen, San Diego, CA), or appropriate controls, and were allowed to incubate at 37°C, 5% CO2 for 24 hours. Twenty four hours following incubation, 120μl of the cell culture supernatant was removed from the cell culture plates and frozen at -80°C until further analysis. The cell culture supernatants were analyzed for IP-10 or IL-6 levels using MSD kits (Meso Scale Discovery, Rockville, MD) according to manufacturer’s protocols.
(§4) The stimulant was the chemical agent that was used to elicit the response in the assay (i.e., TLR ligands in the TLR assay). We used EC80 stimulation conditions for evaluating the impact of compounds in assays with titrable stimulants. To account for donor-to-donor variability in PBMCs, we used donors that whose EC80 values were within a 3-fold range determined by dose-response experiments with the stimulants.

[2] = tested on: TLR9; assay: TLR9 response: ODN 2395 induced IL-6 production in PBMCs
Protocol: as §3, §4

[3] = tested on: TLR3; assay: TLR3 response: Poly I:C induced IP-10 production in PBMCs
Protocol: as §3, §4

[4] = tested on: TLR7
Protocol: as §3, §4

[5] = tested on: TLR9
Protocol: as §3, §4

[6] = tested on: TLR3
Protocol: as §3, §4

[7] = tested on: NK cell mediated killing of K562 cells
Protocol: (§5) A commercially available kit was used to asses NK cell killing (NK Test, Glycotope Biotechnology). Human PBMCs (effector cells) resuspended in culture medium were plated in a round bottom, sterile poly propylene 96 well plate (Corning #3359) and incubated with compounds (final DMSO concentration 0.1%) for 1 hour. Membrane labeled GFP positive K562 cells (target cells) were then added to the effector cells at a 1:50 target–effector ratio. Cells were centrifuged for 3 minutes at 120xg to ensure cell-cell contact and incubated at 37°C, 5% CO2 for 2 hours. Cells were then resuspended in propidium iodide staining solution and incubated at room temperature for 5 minutes. A total of 10,000 target cell events were acquired on a BD Fortessa flow cytometer, and the data was analyzed by FACSDiva or Flowjo.
(§6) We used EC80 stimulation conditions for evaluating the impact of compounds in assays with titrable stimulants. To account for donor-to-donor variability in PBMCs, we used donors that whose EC80 values were within a 3-fold range determined by dose-response experiments with the stimulants. For the NK cell killing assay, we used the conditions and donors that gave the best assay window (i.e., 1:50 target:effector ratio). For the T cell stimulation assay, we performed a dose-titration of αCD3 and αCD28 to determine the stimulation conditions used in this assay. […] Every assay plate contained samples that would elicit a minimal response (no stimulant), maximal response (stimulant with no compounds), compound dose-response (stimulant with compounds) and positive control (stimulant with compound that is known to inhibit the assay). We evaluated the impact of small molecule inhibitors in 8–10 different doses for every PBMC sample in every assay. The values obtained from multiple PBMC donors were compiled together to calculate the inhibitory concentrations of the compounds in a given assay.
(§7) Each assay contained samples that would elicit a minimal and a maximal response, which defined the assay window.

[8] = tested on: ROS production by neutrophils in human whole blood; assay: Phagocyte oxidative burst (Phagoburst), neutrophil ROS production in whole blood; assay type: cell-based; conditions: for IC50: sheet 'IC50 values', whole blood, 10 min, corrected for plasma protein binding, unit inferred, Assay control = DPI, read-out: PB_Neut IC50
Protocol: (§1) Phagocytic oxidative burst was assessed in whole blood samples using the Phagoburst kit (Orpegen Biopharma, #10–0200). The assay was modified to accommodate a 96 well format. Briefly, 50 μL human whole blood was mixed well with compounds (0.1% final DMSO concentration) and incubated for 30 minutes at 37°C, 5% CO2. Then, samples were incubated on ice for 5 minutes, followed by the addition of 10uL of reagent B (opsonized bacteria). Samples were then mixed well and incubated for 10 minutes in a 37°C water bath. Next, 10μL of reagent E (substrate solution) was added to the samples, mixed well and incubated for an additional 10 minutes in the 37°C water bath. Then, 150uL of reagent F (lysis solution) was added to all wells, mixed well and incubated for 20 minutes at room temperature. Samples were washed twice with reagent A and incubated with 90μL of reagent G (DNA staining solution) for 10 minutes, on ice and protected from light. The samples were analyzed in a BD Fortessa flow cytometer. Cells were gated based on Forward and Side scatter properties and high content DNA. A total of 10,000 cell events (high content DNA) were collected, analyzed using FACSDiva or Flowjo and the oxidative burst was measured by the geometric mean fluorescence intensity (GMFI) of the ROS detection dye in the assay (Figure C in S2 Fig).
(§2) Compounds were spiked at 1 μM in plasma. […] Following centrifugation, samples were analyzed using LC-MS/MS. […] A similar methodology was followed for media binding.

[9] = tested on: NK cell mediated killing of K562 cells; assay: NK cell killing function (NK Test, PBMC effectors, K562 target cells)
Protocol: as §5, §6, §7

[10] = tested on: IL-2 production by T cells in human PBMCs
Protocol: (§8) Peripheral blood mononuclear cells in culture media were pre-treated with compounds (0.1% final DMSO concentration) for 45 minutes at 37°C, 5% CO2 and then transferred into anti-CD3 (1 μg/mL, OKT3, eBioscience, San Diego, CA) coated plate containing soluble anti-CD28 (1 μg/mL, Fitzgerald, Acton, MA). Twenty four hours after stimulation, an aliquot of cell culture supernatant was collected and evaluated for IL-2 production (MesoScale Discovery, Rockville, MD) according to manufacturer’s instructions. The remaining culture was allowed to continue incubation for an additional 48 hours. To evaluate proliferation, Click-iT EdU Alexa Flour 647 Assay Kit (Invitrogen, Carlsbad, CA) was used according to manufacturer’s instructions, and proliferation was evaluated at 72 hours following stimulation. The cells were stained with flourochrome conjugated antibodies against CD3, CD4 and CD8 and analyzed in a BD Fortessa flow cytometer by acquiring 8–10,000 events. The data was analyzed by FACSDiva or FlowJo and reported as the percentage of EdU^+CD3^+CD4^+ and EdU^+CD3^+CD8^+ lymphocytes (Figure A in S2 Fig).
(§9) The stimulant was the chemical agent that was used to elicit the response in the assay (i.e., TLR ligands in the TLR assay). We used EC80 stimulation conditions for evaluating the impact of compounds in assays with titrable stimulants. To account for donor-to-donor variability in PBMCs, we used donors that whose EC80 values were within a 3-fold range determined by dose-response experiments with the stimulants. For the NK cell killing assay, we used the conditions and donors that gave the best assay window (i.e., 1:50 target:effector ratio). For the T cell stimulation assay, we performed a dose-titration of αCD3 and αCD28 to determine the stimulation conditions used in this assay. For the phagocyte oxidative burst assay, since we could not screen human whole blood for selecting best responders, we followed the manufacturer’s protocol on 8–10 different human whole blood samples. Every assay plate contained samples that would elicit a minimal response (no stimulant), maximal response (stimulant with no compounds), compound dose-response (stimulant with compounds) and positive control (stimulant with compound that is known to inhibit the assay). We evaluated the impact of small molecule inhibitors in 8–10 different doses for every PBMC sample in every assay. The values obtained from multiple PBMC donors were compiled together to calculate the inhibitory concentrations of the compounds in a given assay.
as §7

[11] = tested on: CD8+ T cell proliferation in human PBMCs
Protocol: as §8, §9, §7

[12] = tested on: IL-2 production by T cells in human PBMCs; assay: T cell activation: IL-2 production in anti-CD3 + anti-CD28 stimulated PBMCs (MSD, 24 h); conditions: for impact on IL-2 production: PBMC, anti-CD3 + anti-CD28, 24 h; for Tcell_IL2 Max inhibition: sheet 'Tcell_IL2', % maximal inhibition = 'top' of curve fit
Protocol: as §8, §9, §7

[13] = tested on: CD8+ T cell proliferation in human PBMCs; assay: CD8+ T cell proliferation in anti-CD3 + anti-CD28 stimulated PBMCs (EdU flow cytometry, 72 h); conditions: for impact on CD8+ T cell proliferation: PBMC, anti-CD3 + anti-CD28, 72 h
Protocol: as §8, §9, §7

[14] = tested on: CD4+ T cell proliferation in human PBMCs; assay: CD4+ T cell proliferation in anti-CD3 + anti-CD28 stimulated PBMCs (EdU flow cytometry, 72 h); conditions: for impact on CD4+ T cell proliferation: PBMC, anti-CD3 + anti-CD28, 72 h
Protocol: as §8, §9, §7

[15] = tested on: CD4+ T cell proliferation in human PBMCs
Protocol: as §8, §9, §7

[16] = tested on: gene expression of stimulated human PBMCs; assay: Nanostring mRNA profiling in the T cell stimulation assay (anti-CD3 + anti-CD28 PBMCs); assay type: cell-based; conditions: for impact on gene expression profile of stimulated PBMCs: 24 h after anti-CD3 and anti-CD28 stimulation, n = 3 donors
Protocol: Cell pellets from experiments were lysed in RLT buffer and prepared according to standard protocol recommended by NanoString Technologies. Briefly, lysates were co-incubated with capture and reporter probes (NanoString Technologies Immunology v2 Codeset) in a thermal cycler set at 65°C for 24 hours. Samples were processed and analyzed with a Generation 2 nCounter. Counts from samples were normalized using housekeeping genes scored on the Nanostring platform. Samples with counts less than 20 were excluded from further analysis. The Matlab function ttest2 was used to determine p-values for log2 fold changes, and the function agglomerative was used to perform clustering.

[17] = tested on: ROS production by monocytes in human whole blood; assay: Phagocyte oxidative burst (Phagoburst), monocyte ROS production in whole blood; assay type: cell-based
Protocol: as §1, §2

[18] = human whole blood, opsonized bacteria

Compound: Cc1ccc(S(=O)(=O)/C=C/C#N)cc1 [BAY-11, BAY 11–7082]
- effect on TLR7 response, IL-6 production [1]: fully inhibited this response
- effect on TLR9 response, ODN 2395 induced IL-6 [2]: fully inhibited this response
- effect on TLR3 response, Poly (I:C) induced IP-10 [3]: fully inhibited the response

Compound: CC(C)(C)c1nc2c3cc[nH]c(=O)c3c3cc(F)ccc3c2[nH]1 [JAK inhibitor 1]
- IC50 [4]: 547 nM
- IC50 [5]: 26 nM
- IC50 [6]: 61.1 nM
- IC50 [7]: 65.9 µM
- IC50 ([8]; opsonized bacteria): 354 nM

Compound: C/C1=C/C(=O)O[C@@H]2C[C@@H](CC[C@H](C)/C=C\C=C\CC1)O[C@@](O)([C@@H]1CSC(=O)N1)C2 [Latrunculin A, latrunculin A]
- effect on NK cell killing activity [9]: completely inhibited

- IC50 [5]: 25.4 nM and 25.9 nM
Compound: Cc1oncc1C(=O)Nc1ccc(C(F)(F)F)cc1 [Leflunomide, leflunomide]
- IC50 [7]: 48.1 µM

Compound: CN(Cc1cnc2nc(N)nc(N)c2n1)c1ccc(C(=O)N[C@@H](CCC(=O)O)C(=O)O)cc1 [Methotrexate]
- IC50 [10]: 4960 nM
- IC50 [11]: 10.5 nM
- impact on IL-2 production [12]: marginal but variable impact
- Tcell_IL2 Max inhibition [12]: 27.8
- maximal inhibition of CD8+ T cell proliferation [13]: around 30%
- maximal inhibition of CD4+ T cell proliferation [14]: around 30%
- IC50 [15]: 5.88 nM
- impact on gene expression profile of stimulated PBMCs ([16]; 1μM): minimal impact on restoring the gene expression profile

- IC50 [5]: 2170 nM and 3060 nM
Compound: COc1c(C)c2c(c(O)c1C/C=C(\C)CCC(=O)OCCN1CCOCC1)C(=O)OC2 [Mycophenolate Mofetil, mycophenolate mofetil]
- impact on IL-2 production [12]: inhibited
- Tcell_IL2 Max inhibition [12]: 49.64
- impact on CD8+ T cell proliferation [13]: inhibited
- impact on CD4+ T cell proliferation [14]: inhibited
- IL-2 mRNA expression ([16]; 1μM, 24 h): partially reduced
- impact on gene expression profile of stimulated PBMCs ([16]; 1μM): minimal impact on restoring the gene expression profile

- IC50 [4]: 31.7 nM and 34.1 nM
- IC50 [5]: 33.2 nM and 35.7 nM
- IC50 [6]: 921 nM and 990 nM
Compound: C[C@]12C=CC(=O)C=C1CC[C@@H]1[C@@H]2[C@@H](O)C[C@@]2(C)[C@H]1CC[C@]2(O)C(=O)CO [Prednisolone, prednisolone]
- IC50 [10]: 75.5 nM
- TLR7 Max inhibition [1]: 93.77
- impact on IL-2 production [12]: inhibited only IL-2 production
- Tcell_IL2 Max inhibition [12]: 71.87
- effect on TLR9 response, ODN 2395 induced IL-6 [2]: dose-dependent inhibition; also recorded: potent in inhibiting TLR9 responses
- impact on CD8+ T cell proliferation [13]: did not have an impact
- IC50 [7]: 21.5 µM
- impact on CD4+ T cell proliferation [14]: did not have an impact
- IL-2 mRNA expression ([16]; 1μM, 24 h): partially reduced
- IL-4 mRNA expression ([16]; 1μM, 24 h): reduced
- IL-13 mRNA expression ([16]; 1μM, 24 h): reduced
- impact on gene expression profile of stimulated PBMCs ([16]; 1μM): modified the gene expression profile of stimulated samples similar to that of unstimulated cells
- IL-2 mRNA expression, time and dose course ([16]; three concentrations, 3h, 6h and 24h following stimulation): impacted in a time- and dose-dependent manner

- IC50 ([17]; Homo sapiens, Monocyte, 10 min, sheet 'IC50 values', whole blood, opsonized bacteria, 10 min, corrected for plasma protein binding, unit inferred, Assay control = DPI, read-out: PB_Mono IC50): 128 nM
- IC50 ([8]; Homo sapiens, Neutrophil, opsonized bacteria): 601 nM
Compound: CO[C@H]1C[C@@H]2CC[C@@H](C)[C@@](O)(O2)C(=O)C(=O)N2CCCC[C@H]2C(=O)O[C@H]([C@H](C)C[C@@H]2CC[C@@H](O)[C@H](OC)C2)CC(=O)[C@H](C)/C=C(\C)[C@@H](O)[C@@H](OC)C(=O)[C@H](C)C[C@H](C)/C=C/C=C/C=C/1C [Rapamycin, rapamycin]
- TLR7 Max inhibition [1]: 72.11
- impact on IL-2 production [12]: did not have an impact
- reduction / maximal inhibition of monocyte ROS production [17, 18]: 20–40%
- PB_Mono Max inhibition ([17]; sheet 'PB_Mono', % maximal inhibition = 'top' of curve fit): 13.41
- impact on CD8+ T cell proliferation [13]: did not have an impact
- impact on CD4+ T cell proliferation [14]: did not have an impact
- reduction / maximal inhibition of neutrophil ROS production [8, 18]: 20–40%
- PB_Neut Max inhibition ([8]; sheet 'PB_Neut', % maximal inhibition = 'top' of curve fit): 36.53

Compound: c1ccc([I+]c2ccccc2)cc1 [diphenyliodonium chloride]
- effect on monocyte ROS production [17, 18]: completely inhibit
- effect on neutrophil ROS production [8, 18]: completely inhibit
